The values below come from ChEMBL document CHEMBL1135525, “Probing the ATP ribose-binding domain of cyclin-dependent kinases 1 and 2 with O(6)-substituted guanine derivatives” (J Med Chem, 2002).

Assay [1] addresses T1, Cyclin-dependent kinase 2/cyclin A (Homo sapiens) (UniProt P24941+P20248+P78396). Briefly: Inhibition of human Cyclin-dependent kinase 2-cyclin A at a concentration of 10 uM. In kind it is protein-complex assay.
Assay [2] deals with T2, Cyclin-dependent kinase 1/cyclin B1 (Homo sapiens, UniProt P06493+P14635). Briefly: Inhibition of starfish oocyte (Marthasteria glacialis) Cyclin-dependent kinase 1-cyclin B1 at a concentration of 10 uM. In kind it is protein-complex assay. The settings on record: Asteroidea.
Target sequence in this assay (P06493 whole entry, looked up): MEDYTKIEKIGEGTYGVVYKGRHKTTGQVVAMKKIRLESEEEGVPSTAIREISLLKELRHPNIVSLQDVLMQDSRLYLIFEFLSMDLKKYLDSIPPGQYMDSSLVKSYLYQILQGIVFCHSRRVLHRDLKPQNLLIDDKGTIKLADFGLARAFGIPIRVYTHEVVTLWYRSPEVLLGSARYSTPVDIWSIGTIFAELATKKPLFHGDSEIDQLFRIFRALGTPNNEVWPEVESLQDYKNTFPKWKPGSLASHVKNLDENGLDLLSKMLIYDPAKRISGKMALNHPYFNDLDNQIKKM
Target sequence in this assay (P14635 whole entry, looked up): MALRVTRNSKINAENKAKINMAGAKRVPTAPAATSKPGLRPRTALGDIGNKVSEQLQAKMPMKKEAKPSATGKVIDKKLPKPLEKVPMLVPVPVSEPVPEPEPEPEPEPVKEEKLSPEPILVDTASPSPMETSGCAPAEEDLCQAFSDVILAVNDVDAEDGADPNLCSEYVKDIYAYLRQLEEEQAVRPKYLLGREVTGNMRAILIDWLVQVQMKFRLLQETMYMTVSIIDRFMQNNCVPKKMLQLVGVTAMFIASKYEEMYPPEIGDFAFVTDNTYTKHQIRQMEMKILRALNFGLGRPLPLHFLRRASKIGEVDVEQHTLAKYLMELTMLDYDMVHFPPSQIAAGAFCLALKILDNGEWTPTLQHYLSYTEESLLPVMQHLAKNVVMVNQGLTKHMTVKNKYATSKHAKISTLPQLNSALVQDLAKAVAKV
In the next assay the test system is MCF7. Briefly: Inhibition of MCF-7 human breast carcinoma cell proliferation. It is filed as functional.
Assay [3] addresses T3, Cyclin-dependent kinase 2/cyclin A (Homo sapiens, UniProt P24941). In words: Inhibition of human Cyclin-dependent kinase 2-cyclin A. In kind it is protein-complex assay.
For assay [4], the target named is T2, Cyclin-dependent kinase 1/cyclin B1. In words: Inhibition of starfish oocyte (Marthasteria glacialis) Cyclin-dependent kinase 1-cyclin B1 at a concentration of 100 uM. In kind it is protein-complex assay. The settings on record: Asteroidea.
Target sequence in this assay (P06493 whole entry, looked up): as the sequence (P06493 whole entry, looked up) above
Target sequence in this assay (P14635 whole entry, looked up): as the sequence (P14635 whole entry, looked up) above
Assay [5] concerns the target T1, Cyclin-dependent kinase 2/cyclin A (Homo sapiens). In words: Inhibition of human Cyclin-dependent kinase 2-cyclin A at a concentration of 100 uM. In kind it is protein-complex assay.
For assay [6] the target is unchanged. Briefly: Inhibition of human Cyclin-dependent kinase 2-cyclin A3 at a concentration of 100 uM. In kind it is protein-complex assay.
The target is the same in assay [7]. Briefly: Inhibition of human Cyclin-dependent kinase 2-cyclin A3 at 100 uM. In kind it is protein-complex assay.
Assay [8] shares this target. In words: Inhibition of Cyclin-dependent kinase 2-cyclin A at 10 uM. It is filed as protein-complex assay.
Assay [9] concerns the target T3, Cyclin-dependent kinase 2/cyclin A. In words: Inhibition of human Cyclin-dependent kinase 2-cyclin A3. It is filed as protein-complex assay.
Assay [10] addresses T1, Cyclin-dependent kinase 2/cyclin A (Homo sapiens). Briefly: Inhibition of human Cyclin-dependent kinase 2-cyclin A at 100 uM. In kind it is protein-complex assay.
For assay [11] the target is unchanged. In words: Inhibition of Cyclin-dependent kinase 2-cyclin A at 100 uM. In kind it is protein-complex assay.
Assay [12] addresses T2, Cyclin-dependent kinase 1/cyclin B1. In words: Inhibition of starfish oocyte (Marthasteria glacialis) Cyclin-dependent kinase 1-cyclin B1. It is filed as protein-complex assay, Asteroidea.
Target sequence in this assay (P06493 whole entry): as the sequence (P06493 whole entry, looked up) above
Target sequence in this assay (P14635 whole entry): as the sequence (P14635 whole entry, looked up) above

`Nc1nc(OCc2ccc3ccccc3c2)c2[nH]cnc2n1`: the figures for the inhibition in [1] and in assay [2] were 9% and 12%, respectively.
In the assay with MCF7, `Nc1nc(OCC2CCCCC2)c2nc[nH]c2n1` yielded a 50% growth inhibitory concentration (GI50) of 20 µM.
Turning to `CC(C)CCOc1nc(N)nc2nc[nH]c12`, the IC50 in assay [3] is 26 µM.
In the case of `Nc1nc(OCC2CC=CCC2)c2[nH]cnc2n1` (stereo not drawn), in assay [3], inhibition was half-maximal at 13 µM (IC50). The GI50 in the assay on MCF7 came out at 37 µM.
In the case of `CCCCOc1nc(N)nc2[nH]cnc12`, it took 48 µM to reach half-maximal inhibition in assay [3] (IC50).
`C#CCOc1nc(N)nc2nc[nH]c12` registered an IC50 in assay [3] of 90 µM.
In turn, `Nc1nc(OCCc2ccccc2)c2nc[nH]c2n1` came in with a half-inhibitory concentration (IC50) in [3] of 65 µM.
`CC(C)C(=O)COc1nc(N)nc2nc[nH]c12`: the inhibition is 41% in [4] and 31% in assay [5].
`CCC(C)COc1nc(N)nc2nc[nH]c12` (stereo not drawn) had an IC50 in assay [3] of 15 µM.
Take `CC1(C)OC[C@@H](COc2nc(N)nc3[nH]cnc23)O1`: the inhibition in assay [6] was 39%; in assay [4], 46%.
In turn, `Nc1nc(OCCC2CCCCC2)c2nc[nH]c2n1` showed an IC50 in [3] of 44 µM.
As to `Nc1nc(OCC2CCCCO2)c2nc[nH]c2n1` (stereo not drawn), the inhibition in assay [7] was 43%; in assay [4], 50%.
In the case of `Nc1nc(OCC2COc3ccccc3O2)c2nc[nH]c2n1` (stereo not drawn), the inhibition in [6] and in [4] was 52% in each case.
Compound `C=CCCCCOc1nc(N)nc2[nH]cnc12` displayed an IC50 in assay [3] of 47 µM.
Consider `Nc1nc(OCc2ccccc2)c2[nH]cnc2n1` [6-O-BENZYLGUANINE], for which half-maximal inhibition in assay [3] (IC50) was put at 35 µM.
For `CCOc1nc(N)nc2[nH]cnc12`, the inhibition came out at 48% in assay [4] and 51% in [5].
`CCCCCOc1nc(N)nc2[nH]cnc12` returned an IC50 in assay [3] of 49 µM.
Take `Nc1nc(OCC(O)CO)c2nc[nH]c2n1` (stereo not drawn): the inhibition in [4] turned out to be 35%; in [5], 33%.
For `C=C(C)[C@H]1CC=C(COc2nc(N)nc3[nH]cnc23)CC1`, the inhibition amounted to 18% in assay [1] and 17% in assay [2].
For `CC(C)Oc1[nH]c(N)nc2ncnc1-2`, the midpoint of inhibition in [3], the IC50, lay at 75 µM.
The same measure, in the same setting: under `Nc1nc(OCC2CCCC2)c2nc[nH]c2n1` stands 21 µM.
`Nc1nc(OCC23CC4CC(CC(C4)C2)C3)c2nc[nH]c2n1`: the inhibition in [1] was 29%; in assay [2], 55%.
In [3], `C=CCOc1nc(N)nc2nc[nH]c12` returned an IC50 of 78 µM.
Take `Nc1nc(OCC=C2CCCCC2)c2nc[nH]c2n1`: the figures for the inhibition in assay [1] and in assay [2] were 12% and 21%, respectively.
Turning to `COC1OC(COc2nc(N)nc3[nH]cnc23)C2OC(C)(C)OC12` (stereo not drawn), the inhibition is 16% in assay [6] and 10% in assay [4]. The compound also displayed a 50% growth inhibitory concentration (GI50) in the assay on MCF7 of over 100 µM.
Compound `CC(C)COc1nc(N)nc2[nH]cnc12` returned an IC50 in assay [3] of 42 µM.
As for `COc1nc(N)nc2nc[nH]c12`, the inhibition in assay [4] came out at 36%; in [5], 35%.
With `Nc1nc(OC[C@H]2CCC(=O)N2)c2nc[nH]c2n1`, the inhibition in assay [6] stood at 35%; in assay [4], 50%.
As for `Nc1nc(OCC2CCCO2)c2[nH]cnc2n1` (stereo not drawn), the figures for the inhibition in assay [4] and in assay [5] were 49% and 40%, respectively.
On to `Nc1nc(OCC2CCCNC2)c2nc[nH]c2n1` (stereo not drawn), for which the inhibition turned out to be 64% in [6] and 70% in [4].
In the case of `Nc1nc(OCC2COC3(CCCCC3)O2)c2[nH]cnc2n1` (stereo not drawn), the inhibition is 29% in [6] and 26% in assay [4].
Consider `COc1cccc(COc2nc(N)nc3[nH]cnc23)c1`, for which the inhibition in assay [4] turned out to be 65%; in [8], 49%.
On to `CC(C)C1(COc2nc(N)nc3[nH]cnc23)OCCO1`, for which, in assay [9], the midpoint of inhibition, the IC50, lay at 65 µM.
For the compound `Nc1nc(OC[C@@H]2CCC(=O)N2)c2nc[nH]c2n1`, the inhibition in assay [6] came out at 15%; in [4] it was 22%.
As for `Nc1nc(OCc2cccc(Cl)c2)c2nc[nH]c2n1`, the inhibition in assay [2] is 28%; in [8] it was 19%.
`Nc1nc(OCc2ccccn2)c2nc[nH]c2n1`: the inhibition in assay [6] came to 43%; in [4], 58%.
The like results for `CC1(C)OC2OC(COc3nc(N)nc4[nH]cnc34)C3OC(C)(C)OC3C2O1` (stereo not drawn) were, in that order, 4% and 10%.
For `Cc1cccc(COc2nc(N)nc3nc[nH]c23)c1`, the inhibition in [10] came out at 52%; in assay [4] it was 70%.
Regarding `CC1(C)OCC(COc2nc(N)nc3[nH]cnc23)O1` (stereo not drawn), the inhibition came to 36% in assay [6] and 43% in assay [4].
Take `CC1(C)OC[C@H](COc2nc(N)nc3[nH]cnc23)O1`: the inhibition was 27% in assay [6] and 31% in assay [4].
As to `CCOC.CCOC(C)COc1[nH]c(N)nc2ncnc1-2` (stereo not drawn), the IC50 in assay [3] came to 33 µM.
Still for that read-out and setting: in the case of `C=C(COc1nc(N)nc2[nH]cnc12)C(C)C` it was 16 µM.
For `Nc1nc(OCC2CCNCC2)c2nc[nH]c2n1`, the inhibition was determined as 43% in [6] and 52% in [4].
Consider `Nc1nc(OCc2cccc3ccccc23)c2nc[nH]c2n1`, for which the inhibition is 3% in assay [1] and 10% in assay [2].
Regarding `Nc1cccc(COc2nc(N)nc3[nH]cnc23)c1`, the inhibition was 65% in assay [4] and 52% in assay [11].
Regarding `CC(=O)COc1nc(N)nc2[nH]cnc12`, the inhibition in [4] came out at 15%; in assay [5], 16%.
Compound `Nc1nc(OCC2=CCCCC2)c2[nH]cnc2n1` had an IC50 in [3] of 22 µM.
In assay [3], `CCC(C)Oc1nc(N)nc2[nH]cnc12` (stereo not drawn) yielded an IC50 of 25 µM.
Turning to `CCC(COc1nc(N)nc2[nH]cnc12)(OC)OC`, the values for the IC50 in [12] and in assay [3] were 19 µM and 20 µM, respectively.
In assay [3], `C=C(COc1nc(N)nc2nc[nH]c12)c1ccccc1` returned an IC50 of 34 µM. This compound came in with a GI50 in the assay with MCF7 of 28 µM.
Regarding `CCCCCCCOc1nc(N)nc2[nH]cnc12`, the IC50 in assay [12] was 62 µM; in [3] it was over 100 µM.
Regarding `C=C(C)COc1nc(N)nc2nc[nH]c12`, inhibition in assay [3] was half-maximal at 35 µM (IC50).
On the same count and under the same terms, under `CC/C=C/CCOc1nc(N)nc2[nH]cnc12` stands 69 µM.
`Nc1nc(OCC2=CCCC2)c2[nH]cnc2n1` displayed an IC50 in assay [3] of 31 µM.
As for `COCC(COc1nc(N)nc2[nH]cnc12)OC` (stereo not drawn), the inhibition in assay [4] came out at 49%; in assay [5] it was 41%.
In the case of `C=C(CC)COc1nc(N)nc2[nH]cnc12`, inhibition in assay [3] was half-maximal at 21 µM (IC50).
The same measure, in the same setting: under `CCCOc1nc(N)nc2nc[nH]c12` stands 67 µM.
Consider `Nc1nc(OCc2cccnc2)c2nc[nH]c2n1`, for which the inhibition in [6] worked out at 43%; in assay [4] it was 55%.
